Measured values taken from patent publication US20050182252A1, “Novel 2'-C-methyl nucleoside derivatives” (priority 2004, published 2005).
Counter-ions that a name gives are not always drawn.

`C[C@@]1(O)[C@H](O)[C@@H](COP2(=O)OCC[C@@H](c3ccc(S(C)(=O)=O)cc3)O2)O[C@H]1n1cnc2c(N)ncnc21` (stereo partly drawn) (as salt: trifluoroacetic acid salt) [Compound 21.8, cis-5′-O-[4-(4-methylsulfonylphenyl)-2-oxo-1,3,2-dioxaphosphorinan-2-yl]-2′-C-beta-methyl-adenosine trifluoroacetic acid salt] gave a melting point of 185 to 187 °C.
`C[C@@]1(O)[C@H](O)[C@@H](COP2(=O)OCC[C@H](c3cc(F)ccc3F)O2)O[C@H]1n1ccc2c(N)ncnc21` (stereo partly drawn) [Compound 16.2, 4-amino-7-(cis-5′-O-[4-(2,5-difluorophenyl)-2-oxo-1,3,2-dioxaphosphorinan-2-yl]-2-C-methyl-beta-D-ribofuranosyl)-7H-pyrrolo[2,3-d]pyrimidine] gave a melting point of 145 to 148 °C.
In the case of `C[C@@]1(O)[C@H](O)[C@@H](COP2(=O)OCC[C@H](c3ccc(F)c(Cl)c3)O2)O[C@H]1n1ccc2c(N)ncnc21` (stereo partly drawn) [Compound 16.3, 4-amino-7-(cis-5′-O-[4-(3-chloro-4-fluorophenyl)-2-oxo-1,3,2-dioxaphosphorinan-2-yl]-2′-C-methyl-beta-D-ribofuranosyl)-7H-pyrrolo[2,3-d]pyrimidine], the melting point is reported as 128 to 130 °C.
Work on `CC1(C)C[C@H](c2ccccc2)OP(=O)(OC[C@H]2O[C@@H](n3ccc4c(N)ncnc43)[C@](C)(O)[C@@H]2O)O1` (stereo partly drawn) [Compound 16.4, 4-amino-7-(cis-5′-O-[6,6-dimethyl-4-phenyl-2-oxo-1,3,2-dioxaphosphorinan-2-yl]-2′-C-methyl-beta-D-ribofuranosyl)-7H-pyrrolo[2,3-d]pyrimidine] yielded a melting point of 140 to 142 °C.
For `C[C@@]1(O)[C@H](O)[C@@H](CO[P@@]2(=O)OCC[C@@H](c3cccc(Cl)c3)O2)O[C@H]1n1ccc2c(N)ncnc21` [Compound 16.5, 4-amino-7-(cis-5′-[4-(S)-(3-chlorophenyl)-2-oxo-1,3,2-dioxaphosphorinan-2-yl]-2′-C-methyl-beta-D-ribofuranosyl)-7H-pyrrolo[2,3-d]pyrimidine], the melting point was 135 to 138 °C.
Compound `C[C@@]1(O)[C@H](O)[C@@H](CO[P@@]2(=O)OCC[C@@H](c3ccncc3)O2)O[C@H]1n1ccc2c(N)ncnc21` [Compound 16.7] has a melting point of 183 to 185 °C.
Work on `C[C@@]1(O)[C@H](O)[C@@H](COP2(=O)OCC[C@@H](c3ccccc3Br)O2)O[C@H]1n1ccc2c(N)ncnc21` (stereo partly drawn) [Compound 16.10, 4-amino-7-(cis-5′-O-[4-(2-bromophenyl)-2-oxo-1,3,2-dioxaphosphorinan-2-yl]-2′-C-methyl-beta-D-ribofuranosyl)-7H-pyrrolo[2,3-d]pyrimidine] yielded a melting point of 132 to 135 °C.
In the case of `C[C@@]1(O)[C@H](O)[C@@H](COP2(=O)OCC[C@@H](c3cncc(Br)c3)O2)O[C@H]1n1ccc2c(N)ncnc21` (stereo partly drawn) [Compound 16.11, 4-amino-7-(cis-5′-O-[4-(5-bromopyridin-3-yl)-2-oxo-1,3,2-dioxaphosphorinan-2-yl]-2′-C-methyl-beta-D-ribofuranosyl)-7H-pyrrolo[2,3-d]pyrimidine], the melting point is reported as 132 to 135 °C.
`C[C@@]1(O)[C@H](O)[C@@H](CO[P@@]2(=O)OCC[C@@H](c3ccccc3)O2)O[C@H]1n1ccc2c(N)ncnc21` [Compound 16.12, 4-amino-7-(cis-5′-O-[4-(S)-phenyl-2-oxo-1,3,2-dioxaphosphorinan-2-y]-2′-C-methyl-beta-D-ribofuranosyl)-7H-pyrrolo[2,3-d]pyrimidine] showed a melting point of 115 to 118 °C.
In the case of `C[C@@]1(O)[C@H](O)[C@@H](COP2(=O)OCC[C@@H](c3ccccc3Cl)O2)O[C@H]1n1ccc2c(N)ncnc21` (stereo partly drawn) [Compound 16.14, 4-amino-7-(cis-5′-O-[4-(2-chlorophenyl)-2-oxo-1,3,2-dioxaphosphorinan-2-yl]-2′-C-methyl-beta-D-ribofuranosyl)-7H-pyrrolo[2,3-d]pyrimidine], the melting point is reported as 187 to 190 °C.
Compound `C[C@@]1(O)[C@H](O)[C@@H](COP2(=O)OC[C@@H](c3ccccc3)[C@@H](c3ccccc3)O2)O[C@H]1n1ccc2c(N)ncnc21` (stereo partly drawn) [Compound 16.22, 4-amino-7-(trans-5′-O-[4,5-cis-diphenyl-2-oxo-1,3,2-dioxaphosphorinan-2-yl]-2′-C-methyl-beta-D-ribofuranosyl)-7H-pyrrolo[2,3-d]pyrimidine] has a melting point of 160 to 163 °C.
For `C[C@@]1(O)[C@H](O)[C@@H](COP2(=O)OCC[C@@H](c3cc(Cl)ccc3Br)O2)O[C@H]1n1ccc2c(N)ncnc21` (stereo partly drawn) [Compound 16.25, 4-amino-7-(cis-5′-O-[4-(2-bromo-5-chlorophenyl)-2-oxo-1,3,2-dioxaphosphorinan-2-yl]-2′-C-methyl-beta-D-ribofuranosyl)-7H-pyrrolo[2,3-d]pyrimidine], the melting point was 193 to 196 °C.
`C[C@@]1(O)[C@H](O)[C@@H](COP2(=O)OCC[C@H](c3cc(Cl)cc(Cl)c3)O2)O[C@H]1n1ccc2c(N)ncnc21` (stereo partly drawn) [Compound 16.26, 4-amino-7-(cis-5′-O-[4-(3,5-dichlorophenyl)-2-oxo-1,3,2-dioxaphosphorinan-2-yl]-2′-C-methyl-beta-D-ribofuranosyl)-7H-pyrrolo[2,3-d]pyrimidine] showed a melting point of 182 to 185 °C.
Work on `C[C@@]1(O)[C@H](O)[C@@H](COP2(=O)OCC[C@H](c3cc(F)cc(F)c3)O2)O[C@H]1n1ccc2c(N)ncnc21` (stereo partly drawn) [Compound 16.27, 4-amino-7-(cis-5′-O-[-4-(3,5-difluorophenyl)-2-oxo-1,3,2-dioxaphosphorinan-2-yl]-2′-C-methyl-beta-D-ribofuranosyl)-7H-pyrrolo[2,3-d]pyrimidine] yielded a melting point of 135 to 140 °C.
Work on `C[C@@]1(O)[C@H](O)[C@@H](CO[P@]2(=O)OCC[C@H](c3cccc(Cl)c3)O2)O[C@H]1n1ccc2c(N)ncnc21` [Compound 16.28, 4-amino-7-(cis-5′-O-[4-(R)-(3-chlorophenyl)-2-oxo-1,3,2-dioxaphosphorinan-2-yl]-2′-C-methyl-beta-D-ribofuranosyl)-7H-pyrrolo[2,3-d]pyrimidine] yielded a melting point of 126 to 128 °C.
Compound `C[C@@]1(O)[C@H](O)[C@@H](COP2(=O)OCC[C@H](c3ccccc3C(F)(F)F)O2)O[C@H]1n1ccc2c(N)ncnc21` (stereo partly drawn) [Compound 16.29, 4-amino-7-(cis-5′-O-[4-(2-trifluoromethylphenyl)-2-oxo-4,3,2-dioxaphosphorinan-2-yl]-2′-C-methyl-beta-D-ribofuranosyl)-7H-pyrrolo[2,3-d]pyrimidine] has a melting point of 115 to 120 °C.
With `C[C@@]1(O)[C@H](O)[C@@H](CO[P@]2(=O)OCC[C@H](c3ccncc3)O2)O[C@H]1n1ccc2c(N)ncnc21` [Compound 16.30, 4-amino-7-(cis-5′-O-[4-(R)-(pyridin-4-yl)-2-oxo-1,3,2-dioxaphosphorinan-2-yl]-2′-C-methyl-beta-D-ribofuranosyl)-7H-pyrrolo[2,3-d]pyrimidine] the melting point was 132 to 136 °C.
For `C[C@@]1(O)[C@H](O)[C@@H](COP2(=O)OCC[C@H](c3cccnc3)O2)O[C@H]1n1ccc2c(N)ncnc21` (stereo partly drawn) [Compound 16.32], the melting point was 134 to 138 °C.
Work on `C[C@@]1(O)[C@H](O)[C@@H](CO[P@]2(=O)OCC[C@H](c3ccccc3)O2)O[C@H]1n1ccc2c(N)ncnc21` [Compound 16.34] yielded a melting point of 177 to 180 °C.
Compound `C[C@@]1(O)[C@H](O)[C@@H](COP2(=O)OCC[C@H](c3ccccc3F)O2)O[C@H]1n1ccc2c(N)ncnc21` (stereo partly drawn) [Compound 16.39, 4-amino-7-(cis-5′-O-[4-(2-fluorophenyl)-2-oxo-1,3,2-dioxaphosphorinan-2-yl]-2′-C-methyl-beta-D-ribofuranosyl)-7H-pyrrolo[2,3-d]pyrimidine] has a melting point of 101 to 103 °C.
`C[C@@]1(O)[C@H](O)[C@@H](COP2(=O)OC3CCCCC3[C@@H](c3ccccc3)O2)O[C@H]1n1ccc2c(N)ncnc21` (stereo partly drawn) [Compound 16.42, 4-amino-7-(cis-5′-O-[4-phenyl-5,6-tetramethylene-2-oxo-1,3,2-dioxaphosphorinan-2-yl]-2′-C-methyl-beta-D-ribofuranosyl)-7H-pyrrolo[2,3-d]pyrimidine] gave a melting point of 110 to 113 °C.
`C[C@@]1(O)[C@H](O)[C@@H](COP2(=O)OCC[C@H](c3cccc(C#N)c3)O2)O[C@H]1n1ccc2c(N)ncnc21` (stereo partly drawn) [Compound 16.43, 4-amino-7-(cis-5′-O-[4-(3-cyanophenyl)-2-oxo-1,3,2-dioxaphosphorinan-2-yl]-2′-C-methyl-beta-D-ribofuranosyl)-7H-pyrrolo[2,3-d]pyrimidine] showed a melting point of 157 to 160 °C.
`C[C@@]1(O)[C@H](O)[C@@H](COP2(=O)OCC[C@@H](c3cccc(Cl)c3)O2)O[C@H]1n1ccc2c(=O)[nH]c(N)nc21` (stereo partly drawn) [Compound 17.2, 2-amino-7-(cis-5-O-[4-(S)-(3-chlorophenyl)-2-oxo-1,3,2-dioxaphosphorinan-2-yl]-2′-C methyl-beta-D-ribofuranosyl)-7H-pyrrolo[2,3-d]pyrimidin-4(3H)-one] showed a melting point of 175 °C.
`C[C@@]1(O)[C@H](O)[C@@H](COP2(=O)OCC[C@@H](c3cc(F)ccc3F)O2)O[C@H]1n1ccc2c(=O)[nH]c(N)nc21` (stereo partly drawn) [Compound 17.6, 2-amino-7-(cis-5′-O-[4-(2,5-difluorophenyl)-2-oxo-1,3,2-dioxaphosphorinan-2-yl]-2′-C methyl-beta-D-ribofuranosyl)-7H-pyrrolo[2,3-d]pyrimidin-4(3H)-one] gave a melting point of 170 to 173 °C.
`C[C@@]1(O)[C@H](O)[C@@H](COP2(=O)OCC[C@H](c3cc(Cl)cc(Cl)c3)O2)O[C@H]1n1ccc2c(=O)[nH]c(N)nc21` (stereo partly drawn) [Compound 17.12, 2-amino-7-(cis-5′-O-[4-(3,5-dichlorophenyl)-2-oxo-1,3,2-dioxaphosphorinan-2-yl]-2′C methyl-beta-D-ribofuranosyl)-7H-pyrrolo[2,3-d]pyrimidin-4(3H)-one] gave a melting point of 177 to 180 °C.
`C[C@@]1(O)[C@H](O)[C@@H](CO[P@@]2(=O)OCC[C@@H](c3ccncc3)O2)O[C@H]1n1ccc2c(=O)[nH]c(N)nc21` [Compound 17.13, 2-amino-7-(cis-5-O-[4-(S)-(pyridin-4-yl)-2-oxo-1,3,2-dioxaphosphorinan-2-yl]-2-C methyl-beta-D-ribofuranosyl)-7H-pyrrolo[2,3-d]pyrimidin-4(3H)-one] gave a melting point of 138 to 141 °C.
Compound `C[C@@]1(O)[C@H](O)[C@@H](COP2(=O)OCC[C@@H](c3cccc(F)c3)O2)O[C@H]1n1ccc2c(=O)[nH]c(N)nc21` (stereo partly drawn) [Compound 17.14, 2-amino-7-(cis-5′-O-[4-(3-fluorophenyl)-2-oxo-1,3,2-dioxaphosphorinan-2-yl]-2-C methyl-beta-D-ribofuranosyl)-7H-pyrrolo[2,3-d]pyrimidin-4(3H)-one] has a melting point of 170 °C.
